The results in this text go back to patent US20240360102A1, “PYRIMIDINE-4,6-DIAMINE DERIVATIVE, A PREPARATION METHOD THEREFOR, AND A PHARMACEUTICAL APPLICATION THEREOF” (Abbisko Therapeutics Co., Ltd., priority 2021, published 2024).

Format in all cases: cell-based
For one assay, the system named is A431. Description: Cell proliferation study (CellTiter-Glo), A431 WT. Particulars: Homo sapiens, A-431; A431 cells, 72 hrs, CTG. The protocol:
(§1) • DMEM medium (Gibco, 11965118) • RPMI1640 medium (Gibco, 11875119) • Fetal bovine serum (FBS) (GBICO, Cat #10099-141) • CellTiter-Glo® luminescent cell viability assay kit (Promega, Cat #G7572) • Black transparent flat-bottom 96-well plate (Corning®, Cat #3603)
(§2) • SpectraMax multi-label microplate reader MD, 2104-0010A; • Carbon dioxide incubator, Thermo Scientific 3100 series; • Biological safety cabinet, Thermo Scientific, 1300 series model A2; • Inverted microscope, Olympus, CKX41SF; • Siemens refrigerator, KK25E76TI.
(§3) • (1) Cells in the logarithmic growth phase were harvested and counted using a […]. The cell viability was determined by the trypan blue dye exclusion method to ensure cell viability above 90%. • (2) The cell concentration was adjusted to reach a desired final density; 90 μL of cell suspension was added to a 96-well plate. • (3) The cells were incubated overnight in the 96-well plate at 37° C., 5% CO2 and with 95% humidity.
(§4) • (1) 10 μL of PBS was added to each well of the TO plate containing the cells, • (2) The CTG reagent was thawed and the cell plate was equilibrated to room temperature for 30 min. • (3) An equal volume of CTG solution was added to each well. • (4) The cells were lysed by shaking on an orbital shaker for 5 min. • (5) The cell plate was left to stand at room temperature for 20 min to stabilize the fluorescence signal. • (6) The fluorescence signal values of TO were read.
(§5) • (1) According to the compound information table, a corresponding volume of DMSO was added to the corresponding compound powder to prepare a 10 mM stock solution. • (2) A 1000-fold, 3.16-fold-diluted compound solution was prepared. • (3) The 1000× diluted compound solution was diluted 100-fold with PBS to prepare a 10-fold compound solution with a maximum concentration of 10 μM, including 9 concentrations, with 3.16-fold dilution, and 10 μL of the medicament solution was added to each well of the 96-well plate to seed the cells. Triplicate wells were set for each compound concentration, with a final concentration of DMSO being 0.1%. • (4) The cells were placed in the 96-well plate containing the medicament at 37° C., 5% CO2 and with 95% humidity, and cultured for 72 hrs before CTG analysis,
(§6) • (1) The CTG reagent was thawed and the cell plate was equilibrated to room temperature for 30 min. • (2) An equal volume of CTG solution was added to each well. • (3) The cells were lysed by shaking on an orbital shaker for 5 min. • (4) The cell plate was left to stand at room temperature for 20 min to stabilize the fluorescence signal. • (5) The fluorescence values were read.
(§7) Data were analyzed using GraphPad Prism 7.0 software and fitted data were regressed using non-linear S-curves to obtain dose-response curves from which IC50 values (in nM) were calculated.

A further assay has as its target Ba/F3 EGFR-L858R-C797S (Homo sapiens, UniProt P00533, C797S/L858R, cells depend on it). Description: Cell proliferation study (CellTiter-Glo), Ba/F3 EGFR-L858R-C797S. The conditions noted are these: 72 hrs, CTG, read-out: L858R/C797S IC50. On the procedure: as §1, §2, §3, §4, §5, §6, §7
On the technique in general: Cellular ATP, detected with luciferase, serves as a proxy for viable cell number.

A further assay has as its target Ba/F3 EGFR-Del19 (Homo sapiens, UniProt P00533, cells depend on it, form not given). Description: Cell proliferation study (CellTiter-Glo), Ba/F3 EGFR-Del19. The conditions noted are these: 72 hrs, CTG, read-out: Del19 IC50. The protocol: as §1, §2, §3, §4
(§8) • (1) According to the compound information table, a corresponding volume of DMSO was added to the corresponding compound powder to prepare a 10 mM stock solution. • (2) A 1000-fold, 3.16-fold-diluted compound solution was prepared. • (3) The 1000× diluted compound solution was diluted 100-fold with PBS to prepare a 10-fold compound solution with a maximum concentration of 10 μM, including 9 concentrations, with 3.16-fold dilution, and 10 μL of the medicament solution was added to each well of the 96-well plate to seed the cells. […]
as §6, §7

The target of another assay is Ba/F3 EGFR-Del19-C797S (Homo sapiens, UniProt P00533, C797S, cells depend on it, form not given). The assay can be described thus: Cell proliferation study (CellTiter-Glo), Ba/F3 EGFR-Del19-C797S. The conditions noted are these: 72 hrs, CTG, read-out: Del19/C797S IC50. On the procedure: as §1, §2, §3, §4, §5, §6, §7
Ba/F3 EGFR-Del19-C797S, sequence (P00533 with tags, fused parts or gaps DEL746-750/C797S, form open): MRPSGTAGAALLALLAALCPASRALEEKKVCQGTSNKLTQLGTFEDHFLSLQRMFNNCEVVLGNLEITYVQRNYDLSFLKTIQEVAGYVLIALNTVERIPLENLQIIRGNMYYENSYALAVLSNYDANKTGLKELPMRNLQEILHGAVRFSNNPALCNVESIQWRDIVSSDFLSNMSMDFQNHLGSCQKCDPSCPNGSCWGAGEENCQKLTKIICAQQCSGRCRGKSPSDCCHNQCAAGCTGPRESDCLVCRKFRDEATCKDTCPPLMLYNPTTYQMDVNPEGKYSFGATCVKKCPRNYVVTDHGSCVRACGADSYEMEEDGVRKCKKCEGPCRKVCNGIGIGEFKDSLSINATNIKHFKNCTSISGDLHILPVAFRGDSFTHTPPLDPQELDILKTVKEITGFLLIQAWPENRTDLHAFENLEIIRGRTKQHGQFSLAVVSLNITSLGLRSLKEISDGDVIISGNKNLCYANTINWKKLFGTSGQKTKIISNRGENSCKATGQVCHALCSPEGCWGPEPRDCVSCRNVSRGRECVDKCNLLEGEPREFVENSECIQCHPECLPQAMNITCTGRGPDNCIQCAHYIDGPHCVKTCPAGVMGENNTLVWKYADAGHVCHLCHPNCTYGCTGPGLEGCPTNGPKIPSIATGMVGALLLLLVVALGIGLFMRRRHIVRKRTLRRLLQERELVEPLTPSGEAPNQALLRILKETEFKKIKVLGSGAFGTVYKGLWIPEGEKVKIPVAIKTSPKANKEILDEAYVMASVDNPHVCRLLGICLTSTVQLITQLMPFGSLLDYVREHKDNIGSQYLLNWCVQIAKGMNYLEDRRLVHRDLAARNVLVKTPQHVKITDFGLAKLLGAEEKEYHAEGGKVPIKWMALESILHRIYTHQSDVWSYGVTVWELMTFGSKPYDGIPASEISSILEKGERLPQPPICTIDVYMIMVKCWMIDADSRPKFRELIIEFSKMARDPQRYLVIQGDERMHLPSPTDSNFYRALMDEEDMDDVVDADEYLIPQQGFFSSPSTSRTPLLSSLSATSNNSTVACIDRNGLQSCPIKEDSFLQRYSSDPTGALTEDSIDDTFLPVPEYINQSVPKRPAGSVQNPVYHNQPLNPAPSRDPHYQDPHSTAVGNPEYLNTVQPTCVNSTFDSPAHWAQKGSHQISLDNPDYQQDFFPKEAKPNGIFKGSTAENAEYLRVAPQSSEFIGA
For a further assay, the target named is Ba/F3 EGFR-L858R (Homo sapiens, UniProt P00533, L858R, cells depend on it). The assay can be described thus: Cell proliferation study (CellTiter-Glo), Ba/F3 EGFR-L858R. Particulars: 72 hrs, CTG, read-out: L858R IC50. The protocol: as §1, §2, §3, §4, §8, §6, §7
Ba/F3 EGFR-L858R, sequence (P00533 whole entry L858R): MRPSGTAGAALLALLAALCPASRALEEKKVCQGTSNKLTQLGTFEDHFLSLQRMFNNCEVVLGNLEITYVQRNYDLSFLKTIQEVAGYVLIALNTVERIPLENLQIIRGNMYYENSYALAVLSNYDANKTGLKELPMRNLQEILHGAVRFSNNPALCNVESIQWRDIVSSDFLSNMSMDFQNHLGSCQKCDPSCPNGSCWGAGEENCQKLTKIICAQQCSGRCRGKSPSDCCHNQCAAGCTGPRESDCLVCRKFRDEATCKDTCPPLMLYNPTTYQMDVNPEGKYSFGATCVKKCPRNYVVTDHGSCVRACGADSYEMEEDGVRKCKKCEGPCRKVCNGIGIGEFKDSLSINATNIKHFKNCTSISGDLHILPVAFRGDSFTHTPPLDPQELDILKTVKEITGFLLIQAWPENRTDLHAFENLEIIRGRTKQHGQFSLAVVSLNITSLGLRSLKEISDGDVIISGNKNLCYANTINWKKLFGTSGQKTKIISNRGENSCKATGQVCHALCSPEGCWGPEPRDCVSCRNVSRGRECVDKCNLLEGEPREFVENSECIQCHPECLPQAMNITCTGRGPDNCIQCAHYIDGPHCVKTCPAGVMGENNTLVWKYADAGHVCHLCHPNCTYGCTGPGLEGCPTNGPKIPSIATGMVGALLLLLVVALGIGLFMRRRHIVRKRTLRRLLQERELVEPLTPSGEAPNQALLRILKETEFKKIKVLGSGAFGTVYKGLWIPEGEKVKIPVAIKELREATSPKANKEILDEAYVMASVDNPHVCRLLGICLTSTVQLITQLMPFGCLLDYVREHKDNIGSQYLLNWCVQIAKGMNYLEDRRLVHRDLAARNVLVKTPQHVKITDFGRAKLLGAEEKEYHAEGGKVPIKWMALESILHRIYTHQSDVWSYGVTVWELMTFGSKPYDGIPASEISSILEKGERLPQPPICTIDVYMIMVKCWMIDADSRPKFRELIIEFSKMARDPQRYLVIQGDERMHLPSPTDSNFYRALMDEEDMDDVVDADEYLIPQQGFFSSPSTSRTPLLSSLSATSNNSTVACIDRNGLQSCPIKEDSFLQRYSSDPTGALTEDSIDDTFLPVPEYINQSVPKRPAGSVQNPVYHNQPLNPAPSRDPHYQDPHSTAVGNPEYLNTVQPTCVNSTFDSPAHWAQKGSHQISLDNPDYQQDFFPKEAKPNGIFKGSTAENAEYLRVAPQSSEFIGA

Ba/F3 EGFR-L858R-C797S, sequence (P00533 whole entry C797S/L858R): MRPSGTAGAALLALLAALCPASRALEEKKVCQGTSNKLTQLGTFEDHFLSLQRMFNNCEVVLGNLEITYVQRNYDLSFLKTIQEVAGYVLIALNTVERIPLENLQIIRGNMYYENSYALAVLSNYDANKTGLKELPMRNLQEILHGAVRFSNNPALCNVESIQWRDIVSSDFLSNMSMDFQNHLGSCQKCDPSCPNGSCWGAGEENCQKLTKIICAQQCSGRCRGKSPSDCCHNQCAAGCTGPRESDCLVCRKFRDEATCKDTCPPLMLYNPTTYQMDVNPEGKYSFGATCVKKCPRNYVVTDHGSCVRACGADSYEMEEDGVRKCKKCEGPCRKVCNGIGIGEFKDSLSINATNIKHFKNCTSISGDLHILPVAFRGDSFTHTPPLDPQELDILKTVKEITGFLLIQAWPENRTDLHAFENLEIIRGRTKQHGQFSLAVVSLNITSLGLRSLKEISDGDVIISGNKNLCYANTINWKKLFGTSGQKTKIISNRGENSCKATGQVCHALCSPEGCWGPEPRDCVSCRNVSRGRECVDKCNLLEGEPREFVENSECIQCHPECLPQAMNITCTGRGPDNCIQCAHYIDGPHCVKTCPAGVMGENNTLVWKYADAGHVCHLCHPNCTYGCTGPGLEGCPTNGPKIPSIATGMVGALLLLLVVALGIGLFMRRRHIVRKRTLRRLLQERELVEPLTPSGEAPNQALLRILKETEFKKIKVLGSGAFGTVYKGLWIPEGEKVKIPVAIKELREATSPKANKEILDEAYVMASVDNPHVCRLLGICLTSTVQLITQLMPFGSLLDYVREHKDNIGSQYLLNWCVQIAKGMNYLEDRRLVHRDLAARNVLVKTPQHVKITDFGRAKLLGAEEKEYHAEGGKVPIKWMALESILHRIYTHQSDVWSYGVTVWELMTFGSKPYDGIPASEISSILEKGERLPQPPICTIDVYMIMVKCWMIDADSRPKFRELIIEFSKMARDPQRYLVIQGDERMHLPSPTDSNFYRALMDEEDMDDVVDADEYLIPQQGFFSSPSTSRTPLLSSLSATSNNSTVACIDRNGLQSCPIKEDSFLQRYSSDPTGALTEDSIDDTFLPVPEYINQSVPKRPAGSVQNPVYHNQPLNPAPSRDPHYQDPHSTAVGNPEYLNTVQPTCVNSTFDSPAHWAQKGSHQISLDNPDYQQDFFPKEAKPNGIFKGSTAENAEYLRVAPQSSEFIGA
Ba/F3 EGFR-Del19, sequence (P00533 with tags, fused parts or gaps DEL746-750): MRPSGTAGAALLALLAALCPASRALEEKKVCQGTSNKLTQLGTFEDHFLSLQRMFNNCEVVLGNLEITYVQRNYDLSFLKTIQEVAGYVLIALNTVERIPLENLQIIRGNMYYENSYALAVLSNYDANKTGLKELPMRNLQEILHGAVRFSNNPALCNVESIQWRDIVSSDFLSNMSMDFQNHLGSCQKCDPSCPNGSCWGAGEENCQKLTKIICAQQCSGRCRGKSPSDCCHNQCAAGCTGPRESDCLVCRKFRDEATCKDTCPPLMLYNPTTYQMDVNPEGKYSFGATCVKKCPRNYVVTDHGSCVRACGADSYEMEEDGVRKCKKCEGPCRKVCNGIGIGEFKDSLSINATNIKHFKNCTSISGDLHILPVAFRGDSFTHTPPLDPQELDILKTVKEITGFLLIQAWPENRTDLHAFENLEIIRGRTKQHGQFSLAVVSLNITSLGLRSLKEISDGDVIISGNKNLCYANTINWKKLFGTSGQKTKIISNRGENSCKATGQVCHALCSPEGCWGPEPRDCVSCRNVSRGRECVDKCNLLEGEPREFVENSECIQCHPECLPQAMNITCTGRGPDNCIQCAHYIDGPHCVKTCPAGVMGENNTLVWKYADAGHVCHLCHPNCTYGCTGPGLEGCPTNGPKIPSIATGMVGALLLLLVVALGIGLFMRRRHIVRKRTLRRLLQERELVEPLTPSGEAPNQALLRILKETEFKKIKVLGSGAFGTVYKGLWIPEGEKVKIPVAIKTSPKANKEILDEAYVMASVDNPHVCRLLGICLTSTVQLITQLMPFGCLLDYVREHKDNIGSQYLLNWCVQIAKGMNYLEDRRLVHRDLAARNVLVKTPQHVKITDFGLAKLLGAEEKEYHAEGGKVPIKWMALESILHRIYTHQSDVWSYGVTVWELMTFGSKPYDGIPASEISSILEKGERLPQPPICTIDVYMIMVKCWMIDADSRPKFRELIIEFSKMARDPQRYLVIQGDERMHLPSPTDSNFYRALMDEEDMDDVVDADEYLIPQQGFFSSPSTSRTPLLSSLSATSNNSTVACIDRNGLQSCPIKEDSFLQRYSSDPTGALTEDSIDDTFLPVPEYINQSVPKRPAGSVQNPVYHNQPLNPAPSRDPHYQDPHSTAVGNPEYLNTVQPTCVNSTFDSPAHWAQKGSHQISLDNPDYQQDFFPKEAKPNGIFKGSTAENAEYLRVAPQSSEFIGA

A word on the IC50: it is the concentration at which inhibition is half-maximal. The compound `Cc1cc(Nc2cc(Nc3ccnc(-c4ccccc4F)c3)ncn2)c(OC(F)F)cc1N1CCC(N2CCN(C)CC2)CC1` [Example 4, N^4-(2-(difluoromethoxy)-5-methyl-4-(4-(4-methylpiperazin-1-yl)piperidin-1-yl)phenyl)-N^6-(2-(2-fluorophenyl)pyridin-4-yl)pyrimidine-4,6-diamine] registered an IC50 in the assay with A431 of 237 nM. In addition, the GI50 at Ba/F3 EGFR-L858R-C797S turned out to be 12.1 nM; at Ba/F3 EGFR-Del19, 6.6 nM; at Ba/F3 EGFR-Del19-C797S, 12.7 nM; on Ba/F3 EGFR-L858R, 6.2 nM.

Take `CN1CCN(C2CCN(c3cc(Cl)c(Nc4cc(Nc5ccnc(-c6ccccc6F)c5)ncn4)cc3Cl)CC2)CC1` [Example 17, N^4-(2,5-dichloro-4-(4-(4-methylpiperazin-1-yl)piperidin-1-yl)phenyl)-N^6-(2-(2-fluorophenyl)pyridin-4-yl)pyrimidine-4,6-diamine]: inhibition in the assay with A431 was half-maximal at 1060 nM (IC50). In addition, the GI50 turned out to be 87.8 nM at Ba/F3 EGFR-L858R-C797S and 85 nM at Ba/F3 EGFR-Del19-C797S.

In turn, `COc1cc(N2CCC(N3CCN(C)CC3)CC2)c(F)cc1Nc1cc(Nc2ccnc(-c3ccccc3F)c2)ncn1` [Example 13, N^4-(5-fluoro-2-methoxy-4-(4-(4-methylpiperazin-1-yl)piperidin-1-yl)phenyl)-N^6-(2-(2-fluorophenyl)pyridin-4-yl)pyrimidine-4,6-diamine] returned an IC50 with A431 of 182 nM. Besides, the GI50 was 22.8 nM at Ba/F3 EGFR-L858R-C797S and 16.9 nM at Ba/F3 EGFR-Del19-C797S.

`COc1cc(N2CCC(N3CCN(C)CC3)CC2)c(Br)cc1Nc1cc(Nc2ccnc(-c3ccccc3F)c2)ncn1` [Example 15, N^4-(5-bromo-2-methoxy-4-(4-(4-methylpiperazin-1-yl)piperidin-1-yl)phenyl)-N-(2-(2-fluorophenyl)pyridin-4-yl)pyrimidine-4,6-diamine]: the IC50 in the assay with A431 turned out to be 181 nM. Besides, the GI50 on Ba/F3 EGFR-L858R-C797S stood at 18.3 nM.

`COc1cc(N2CCC(N3CCN(C)CC3)CC2)c(C(C)C)cc1Nc1cc(Nc2ccnc(-c3ccccc3F)c2)ncn1` [Example 7, N^4-(2-(2-fluorophenyl)pyridin-4-yl)-N^6-(5-isopropyl-2-methoxy-4-(4-(4-methylpiperazin-1-yl)piperidin-1-yl)phenyl)pyrimidine-4,6-diamine]: the IC50 in the assay with A431 came out at 2500 nM. Also, the GI50 at Ba/F3 EGFR-L858R-C797S was found to be 69.1 nM.

In the case of `COc1cc(N2CCC(N3CCN(C)CC3)CC2)c(Cl)cc1Nc1cc(Nc2ccnc(-c3ccccc3F)c2)ncn1` [Example 14, N^4-(5-chloro-2-methoxy-4-(4-(4-methylpiperazin-1-yl)piperidin-1-yl)phenyl)-N^6-(2-(2-fluorophenyl)pyridin-4-yl)pyrimidine-4,6-diamine], it took 228 nM to reach half-maximal inhibition in the assay with A431 (IC50). In addition, the GI50 was found to be 21.4 nM at Ba/F3 EGFR-L858R-C797S and 21.9 nM on Ba/F3 EGFR-Del19-C797S.

For the compound `COc1cc(N2CCC(N3CCOCC3)CC2)c(C)cc1Nc1cc(Nc2ccnc(-c3ccccc3F)c2)ncn1` [Example 2, N^4-(2-(2-fluorophenyl)pyridin-4-yl)-N^6-(2-methoxy-5-methyl-4-(4-morpholinopiperidin-1-yl)phenyl)pyrimidine-4,6-diamine], in the assay on A431, 554 nM corresponded to half-maximal inhibition (IC50). The GI50 was 10.4 nM at Ba/F3 EGFR-L858R-C797S, 2.8 nM at Ba/F3 EGFR-Del19, 17.4 nM on Ba/F3 EGFR-Del19-C797S and 2.9 nM on Ba/F3 EGFR-L858R.

Take `Cc1cc(Nc2cc(Nc3ccnc(-c4ccccc4F)c3)ncn2)c(Cl)cc1N1CCC(N2CCN(C)CC2)CC1` [Example 18, N^4-(2-chloro-5-methyl-4-(4-(4-methylpiperazin-1-yl)piperidin-1-yl)phenyl)-N^6-(2-(2-fluorophenyl)pyridin-4-yl)pyrimidine-4-diamine]: in the assay with A431, the IC50 is 984 nM. Also, the figures for the GI50 at Ba/F3 EGFR-L858R-C797S and on Ba/F3 EGFR-Del19-C797S were 21.7 nM and 25.1 nM, respectively.

Consider `CCN1CCN(C2CCN(c3cc(OC)c(Nc4cc(Nc5ccnc(-c6ccccc6F)c5)ncn4)cc3C)CC2)CC1` [Example 16, N^4-(4-(4-(4-ethylpiperazin-1-yl)piperidin-1-yl)-2-methoxy-5-methylphenyl)-N^6-(2-(2-fluorophenyl)pyridin-4-yl)pyramidine-4,6-diamine], for which, in the assay on A431, the IC50 worked out at 177 nM. Also, the GI50 came to 11.3 nM at Ba/F3 EGFR-L858R-C797S, 3.1 nM on Ba/F3 EGFR-Del19, 12.9 nM at Ba/F3 EGFR-Del19-C797S and 3.9 nM on Ba/F3 EGFR-L858R.

As for `COc1cc(N2CCOCC2)c(-c2cnn(C)c2)cc1Nc1cc(Nc2ccnc(-c3ccccc3F)c2)ncn1` [Example 10, N^4-(2-(2-fluorophenyl)pyridin-4-yl)-N^6-(2-methoxy-5-(1-methyl-1H-pyrazol-4-yl)-4-morpholinophenyl)pyrimidine-4,6-diamine], on Ba/F3 EGFR-L858R-C797S, the GI50 came to 117 nM.

In the case of `COc1cc(N2CCC(N3CCN(C)CC3)CC2)c(-c2cnn(C)c2)cc1Nc1cc(Nc2ccnc(-c3ccccc3F)c2)ncn1` [Example 9, N^4-(2-(2-fluorophenyl)pyridin-4-yl)-N^6-(2-methoxy-5-(1-methyl-1H-pyrazol-4-yl)-4-(4-(4-methylpiperazin-1-yl)piperidin-1-yl)phenyl)pyrimidine-4,6-diamine], in the assay on A431, the IC50 is 1520 nM. Besides, the GI50 at Ba/F3 EGFR-L858R-C797S is 68.6 nM.

For `Cc1cc(Nc2cc(Nc3ccnc(-c4ccccc4F)c3)ncn2)c(OCC(F)(F)F)cc1N1CCC(N2CCN(C)CC2)CC1` [Example 5, N^4-(2-(2-fluorophenyl)pyridin-4-yl)-N^6-(5-methyl-4-(4-(4-methylpiperazin-1-yl)piperidin-1-yl)-2-(2,2,2-trifluoroethoxy)phenyl)pyrimidine-4,6-diamine], the GI50 on Ba/F3 EGFR-L858R-C797S is 53.2 nM.

For `COc1cc(N2CCN(C)CC2)c(-c2cnn(C)c2)cc1Nc1cc(Nc2ccnc(-c3ccccc3F)c2)ncn1` [Example 11, N^4-(2-(2-fluorophenyl)pyridin-4-yl)-N^6-(2-methoxy-5-(1-methyl-1H-pyrazol-4-yl)-4-(4-methylpiperazin-1-yl)phenyl)pyrimidine-4,6-diamine], in the assay with A431, 306 nM corresponded to half-maximal inhibition (IC50). Besides, the GI50 at Ba/F3 EGFR-L858R-C797S turned out to be 72.6 nM.

Take `CCc1cc(Nc2cc(Nc3ccnc(-c4ccccc4F)c3)ncn2)c(OC)cc1N1CCC(N2CCN(C)CC2)CC1` [Example 6, N^4-(5-ethyl-2-methoxy-4-(4-(4-methylpiperazin-1-yl)piperidin-1-yl)phenyl)-N^6-(2-(2-fluorophenyl)pyridin-4-yl)pyrimidine-4,6-diamine]: half-maximal inhibition in the assay on A431 (IC50) was put at 1080 nM. Also, the GI50 stood at 32.1 nM on Ba/F3 EGFR-L858R-C797S and 23.7 nM on Ba/F3 EGFR-Del19-C797S.

Consider `CCOc1cc(N2CCC(N3CCN(C)CC3)CC2)c(C)cc1Nc1cc(Nc2ccnc(-c3ccccc3F)c2)ncn1` [Example 3, N^4-(2-ethoxy-5-methyl-4-(4-(4-methylpiperazin-1-yl)piperidin-1-yl)phenyl)-N^6-(2-(2-fluorophenyl)pyridin-4-yl)pyrimidine-4,6-diamine], for which the IC50 with A431 came out at 217 nM. Further, the GI50 on Ba/F3 EGFR-L858R-C797S amounted to 23.3 nM.

`COc1cc(N2CCC(N3CCN(C)CC3)CC2)c(C2CC2)cc1Nc1cc(Nc2ccnc(-c3ccccc3F)c2)ncn1` [Example 8, N^4-(5-cyclopropyl-2-methoxy-4-(4-(4-methylpiperazin-1-yl)piperidin-1-yl)phenyl)-N^6-(2-(2-fluorophenyl)pyridin-4-yl)pyrimidine-4,6-diamine]: the IC50 with A431 turned out to be 1660 nM. For the same compound, the GI50 at Ba/F3 EGFR-L858R-C797S was 40 nM; on Ba/F3 EGFR-Del19-C797S, 34.6 nM.

On to `COc1cc(N2CCC(N3CCN(C)CC3)CC2)c(C)cc1Nc1cc(Nc2cncc(-c3ccccc3F)c2)ncn1` [Example 12, N^4-(5-(2-fluorophenyl)pyridin-3-yl)-N^6-(2-methoxy-5-methyl-4-(4-(4-methylpiperazin-1-yl)piperidin-1-yl)phenyl)pyrimidine-4,6-diamine], for which half-maximal inhibition with A431 (IC50) was put at 2340 nM. For the same compound, on Ba/F3 EGFR-L858R-C797S, the GI50 amounted to 77.4 nM.
